Results as given in article PMC314469, “Protein Interaction Networks by Proteome Peptide Scanning” (PLoS Biology, 2004).

These sequences were tested on Myo5 SH3 domain (assay: SPOT analysis of cellulose-bound peptides (WISE), Myo5 SH3 domain (Dataset S4)). Settings: SPOT analysis of cellulose-bound 14-mer yeast proteome peptides, Myo5 SH3 domain; normalized value; mean where the peptide was synthesized more than once.
Format: binding, Saccharomyces cerevisiae
In the case of IAKPYVLPFFPLYA, the “The normalized value in BLU units” value is reported as 246.9 BLU.
For SRSKRSKPLPPQLL, the “The normalized value in BLU units” value was 884.3 BLU.
With NSGEKIYPQEPPIS the “The normalized value in BLU units” value was 111.7 BLU.
In the case of HFLCLDPPIDPNNL, the “The normalized value in BLU units” value is reported as 122.0 BLU.
For YSTNRGIPARPCKD, the “The normalized value in BLU units” value was 271.3 BLU.
In the case of IGKSKSAPPIPEDT, the “The normalized value in BLU units” value is reported as 243.5 BLU.
With AAMMLGNPMAPAVQ the “The normalized value in BLU units” value was 256.9 BLU.
In the case of LYREREEPPLPKRI, the “The normalized value in BLU units” value is reported as 112.3 BLU.
SKVNKVAPDHPFIQ was tested, and the “The normalized value in BLU units” value was 72.1 BLU.
In the case of ENTPRPNPTQPRKP, the “The normalized value in BLU units” value is reported as 137.3 BLU.
For KPSGYYGPNSPLKL, the “The normalized value in BLU units” value was 159.2 BLU.
In the case of KPPVYRLPPLPRLK, the “The normalized value in BLU units” value is reported as 2305.8 BLU.
With IEITHSEPAIPYRE the “The normalized value in BLU units” value was 114.3 BLU.
For LPAVFSAPIRPDIV, the “The normalized value in BLU units” value was 201.8 BLU.
For SLVKFSCPMTPLLE, the “The normalized value in BLU units” value was 248.6 BLU.
For SPSQYQYPSQPALS, the “The normalized value in BLU units” value was 65.2 BLU.
For AARILANPDHPFSR, the “The normalized value in BLU units” value was 165.5 BLU.

Same assay, conditions: SPOT analysis of cellulose-bound peptides probed with Myo5 SH3 domain; normalized value
For AAVRLDQPILPQND, the “The normalized value in BLU units (SPOT analysis, Myo5 SH3)” value was 105.1 BLU.
With KELIYKQPSGPGLV the “The normalized value in BLU units (SPOT analysis, Myo5 SH3)” value was 79.3 BLU.
For LWKPLVYPTCPSEH, the “The normalized value in BLU units (SPOT analysis, Myo5 SH3)” value was 185.3 BLU.
In the case of SPRHYNVPSSPIAP, the “The normalized value in BLU units (SPOT analysis, Myo5 SH3)” value is reported as 232.7 BLU.
With DPSLYQIPEPPRGG the “The normalized value in BLU units (SPOT analysis, Myo5 SH3)” value was 98.8 BLU.
In the case of LPEELMRPKVPELL, the “The normalized value in BLU units (SPOT analysis, Myo5 SH3)” value is reported as 145.4 BLU.
GWEPFSLPKDPKVV was tested, and the “The normalized value in BLU units (SPOT analysis, Myo5 SH3)” value was 75.9 BLU.
EPATLPLPGTPTLA was tested, and the “The normalized value in BLU units (SPOT analysis, Myo5 SH3)” value was 61.8 BLU.
GFDGYMQPIIPGKT was tested, and the “The normalized value in BLU units (SPOT analysis, Myo5 SH3)” value was 158.4 BLU.

Same assay, conditions: SPOT analysis of membrane-bound peptides, Myo5 SH3 domain; normalized value (see methods)
With RDDVKRTPFIPESV the “The normalized value in BLU units” value was 171.1 BLU.
For LTLTKWDPSKPISL, the “The normalized value in BLU units” value was 231.0 BLU.
With GLNLKWEPSTPQRN the “The normalized value in BLU units” value was 104.8 BLU.
In the case of IYHCKKQPLVPIGC, the “The normalized value in BLU units” value is reported as 293.5 BLU.
In the case of LDKGKHVPSKPVSN, the “The normalized value in BLU units” value is reported as 200.9 BLU.
FVSPRRAPKPPSYP was tested, and the “The normalized value in BLU units” value was 1581.6 BLU.
For EKEAKSEPQQPEDN, the “The normalized value in BLU units” value was 139.0 BLU.
PHFAKHSPDSPRTS was tested, and the “The normalized value in BLU units” value was 236.2 BLU.
In the case of AMESRVAPEIPGLI, the “The normalized value in BLU units” value is reported as 426.0 BLU.
In the case of YPNGRTLPPVPTQV, the “The normalized value in BLU units” value is reported as 172.4 BLU.
With HILEKYSPFDPCGR the “The normalized value in BLU units” value was 166.2 BLU.
In the case of PESAKCNPNSPRLK, the “The normalized value in BLU units” value is reported as 253.0 BLU.
With WLDEKRIPSTPVDY the “The normalized value in BLU units” value was 240.0 BLU.
EEQVKCNPNRPIYW was tested, and the “The normalized value in BLU units” value was 110.0 BLU.

Same assay, conditions: SPOT analysis of membrane-synthesized peptides probed with Myo5 SH3 domain; normalized value
In the case of LPLSRVQPVQPSQT, the “The normalized value in BLU units (SPOT analysis, Myo5 SH3)” value is reported as 122.5 BLU.
With QPPDRNLPSHPSSN the “The normalized value in BLU units (SPOT analysis, Myo5 SH3)” value was 155.8 BLU.
RHSKKPAPPPPGMQ was tested, and the “The normalized value in BLU units (SPOT analysis, Myo5 SH3)” value was 1938.6 BLU.
TTRKKKDPNAPKRA was tested, and the “The normalized value in BLU units (SPOT analysis, Myo5 SH3)” value was 274.6 BLU.
QHKPKVKPSKPEAK was tested, and the “The normalized value in BLU units (SPOT analysis, Myo5 SH3)” value was 956.3 BLU.
For KKHDKLYPKYPSVK, the “The normalized value in BLU units (SPOT analysis, Myo5 SH3)” value was 339.6 BLU.
With LITDKEYPVRPAYT the “The normalized value in BLU units (SPOT analysis, Myo5 SH3)” value was 136.3 BLU.
NLKTKSHPEVPRLD was tested, and the “The normalized value in BLU units (SPOT analysis, Myo5 SH3)” value was 362.8 BLU.
For HEREKALPPIPFTT, the “The normalized value in BLU units (SPOT analysis, Myo5 SH3)” value was 214.6 BLU.
LAYERPLPDLPSTI was tested, and the “The normalized value in BLU units (SPOT analysis, Myo5 SH3)” value was 131.9 BLU.
KKNPKKSPMGPQGA was tested, and the “The normalized value in BLU units (SPOT analysis, Myo5 SH3)” value was 1007.5 BLU.
With FQPQRTAPKPPISA the “The normalized value in BLU units (SPOT analysis, Myo5 SH3)” value was 88304.9 BLU.
FLLKKMFPAPPLPT was tested, and the “The normalized value in BLU units (SPOT analysis, Myo5 SH3)” value was 23725.0 BLU.
With EFLRKHSPKAPATG the “The normalized value in BLU units (SPOT analysis, Myo5 SH3)” value was 412.8 BLU.
LNQSKGQPFQPSPT was tested, and the “The normalized value in BLU units (SPOT analysis, Myo5 SH3)” value was 254.7 BLU.
SFIRKRAPTPPAPS was tested, and the “The normalized value in BLU units (SPOT analysis, Myo5 SH3)” value was 878.2 BLU.
In the case of MYDRKVIPRMPWHD, the “The normalized value in BLU units (SPOT analysis, Myo5 SH3)” value is reported as 357.4 BLU.
For AVQLKRQPAQPRES, the “The normalized value in BLU units (SPOT analysis, Myo5 SH3)” value was 237.9 BLU.
